The source of these data is patent publication US5686441A, “Penam sulfones as β-lactamase inhibitors” (Syphar Laboratories, Inc., priority 1995, dated 1997).

The structures appear in SMILES notation. pIC50: −log10 of the molar value. ≈ marks a conversion by molar mass, not a printed value. Where a name gives a salt, the structure may show the parent alone. Read-outs that look alike come from different tables or passages of the source. A value given as a limit tells only on which side of the number the result lay.

Experiment [1] addresses T1, TEM-1 (Escherichia coli, UniProt P62593).
T1 construct: TEM-1 (isolated from E. coli); endogenous in cells; host or cells: E. coli (enzyme isolated from the bacterium)
As to the kind of experiment: β-lactamase inhibitory activity, spectrophotometric rate assay with nitrocefin. It counts as biochemical. The settings on record: TEM-1 isolated from E. coli; nitrocefin substrate; read-out: 50% Inhibitory conc. TEM-1. The method, then:
(§1) The inhibitory activities of present compounds against TEM-1 (isolated from E. coli), CTX-1 (isolated from K. pneumoniae), cephalosporinase (isolated from P. aeruginoase 46012) was measured by spectrophotometric rate assay using […] and using nitrocefin as a substrate [J. Antimicrob. Chemother., 28, pp. 775-776 (1991)].

The target in experiment [2] is T2, cephalosporinase (Pseudomonas aeruginosa, UniProt P24735).
T2 construct: nitrocefin spectrophotometric assay
The experiment is described as above. It counts as biochemical. The settings on record: cephalosporinase isolated from P. aeruginoase 46012; nitrocefin substrate; read-out: 50% Inhibitory conc. Cephalosporinase. As to the method: as §1

Experiment [3] deals with E. aerogenes 41006. Description: MIC, agar dilution method. The settings on record: Klebsiella aerogenes, 41006, 18 h, read-out: MIC Ceftazidime (Alone). In general terms: In agar dilution the substance is mixed into plates at graded concentrations.
The subject of experiment [4] is E. coli TEM 3. Description: MIC, agar dilution method. The settings on record: Escherichia coli, TEM3, 18 h.
In experiment [5] the test system is E. cloacae E. 40009. Description: MIC, agar dilution method. The note with it: Enterobacter cloacae, E.40009, 18 h, read-out: MIC Ceftazidime (Alone).
The subject of experiment [6] is E. cloacae P99. Description: MIC, agar dilution method. The note with it: Enterobacter cloacae, P99, 18 h.
For experiment [7], the system named is M. morganii 36014. Description: MIC, agar dilution method. The settings on record: Morganella morganii, 36014, 18 h.
Experiment [8] deals with K. pneumoniae CTX1. As to the kind of experiment: MIC, agar dilution method. The settings on record: Klebsiella pneumoniae, CTX1, 18 h.
For experiment [9], the system named is P. aeruginosa 46220 DR-2. As to the kind of experiment: MIC, agar dilution method. The note with it: Pseudomonas aeruginosa, 46220DR2, 18 h, read-out: MIC Ceftazidime (Alone).
Experiment [10] deals with P. aeruginosa L 46003. As to the kind of experiment: MIC, agar dilution method. The settings on record: Pseudomonas aeruginosa, L46003, 18 h, read-out: MIC Ceftazidime (Alone).
The test system of experiment [11] is E. coli TEM 7. Description: MIC, agar dilution method. The settings on record: Escherichia coli, TEM7, 18 h.
The test system of experiment [12] is E. aerogenes 41004. As to the kind of experiment: MIC, agar dilution method. The note with it: Klebsiella aerogenes, 41004, 18 h.
Experiment [13] relates to E. aerogenes 41003. Description: MIC, agar dilution method. The settings on record: Klebsiella aerogenes, 41003, 18 h, read-out: MIC Ceftazidime (Alone).
In experiment [14] the test system is M. morganii 36010. As to the kind of experiment: MIC, agar dilution method. The note with it: Morganella morganii, 36010, 18 h.
Experiment [15] has as its system E. cloacae 40011. As to the kind of experiment: MIC, agar dilution method. The note with it: Enterobacter cloacae, 40011, 18 h.
The test system of experiment [16] is E. coli OXA 1. As to the kind of experiment: MIC, agar dilution method. The note with it: Escherichia coli, OXA1, 18 h, read-out: MIC Piperacillin Alone.
Experiment [17] has as its system E. coli TEM 1. Description: MIC, agar dilution method. The note with it: Escherichia coli, TEM1, 18 h, read-out: MIC Piperacillin Alone.
Experiment [18] deals with S. aureus 54K. As to the kind of experiment: MIC, agar dilution method. The settings on record: Staphylococcus aureus, 18 h, read-out: MIC Piperacillin Alone.
Experiment [19] has as its system E. aerogenes. Description: MIC, agar dilution method. The note with it: Klebsiella aerogenes, 18 h, read-out: MIC Piperacillin Alone.
Experiment [20] relates to A. calcoaceticus 553L. Description: MIC, agar dilution method. The settings on record: Acinetobacter calcoaceticus, 18 h, read-out: MIC Piperacillin Alone.
In experiment [21] the test system is K. pneumoniae 336L. As to the kind of experiment: MIC, agar dilution method. The settings on record: Klebsiella pneumoniae, 18 h, read-out: MIC Piperacillin Alone.
The test system of experiment [22] is E. cloacae E. 4009. As to the kind of experiment: MIC, agar dilution method. The note with it: Enterobacter cloacae, E.4009, 18 h, read-out: MIC Piperacillin Alone.
The test system of experiment [23] is E. coli SHV 1. As to the kind of experiment: MIC, agar dilution method. The note with it: Escherichia coli, SHV1, 18 h, read-out: MIC Piperacillin Alone.
Experiment [24] concerns P. aeruginosa L 46007. As to the kind of experiment: MIC, agar dilution method. The settings on record: Pseudomonas aeruginosa, L46007, 18 h, read-out: MIC Piperacillin Alone.
Experiment [25] concerns E. coli OXA 3. Description: MIC, agar dilution method. The settings on record: Escherichia coli, OXA3, 18 h, read-out: MIC Piperacillin Alone.
Experiment [26] has as its system P. vulgaris CT106. Description: MIC, agar dilution method. The settings on record: Proteus vulgaris, CT106, 18 h, read-out: MIC Piperacillin Alone.
In experiment [27] the test system is S. marcescens 200L. Description: MIC, agar dilution method. The note with it: Serratia marcescens, 18 h, read-out: MIC Piperacillin Alone.
The subject of experiment [28] is C. freundii 2046E. As to the kind of experiment: MIC, agar dilution method. The settings on record: Citrobacter freundii, 18 h, read-out: MIC Piperacillin Alone.
Experiment [29] relates to E. cloacae 40015. Description: MIC, agar dilution method. The note with it: Enterobacter cloacae, 40015, 18 h, read-out: MIC Piperacillin Alone.
The test system of experiment [30] is S. aureus 80K. Description: MIC, agar dilution method. The note with it: Staphylococcus aureus, 18 h, read-out: MIC Piperacillin Alone.
For experiment [31], the system named is S. aureus 1628. As to the kind of experiment: MIC, agar dilution method. The note with it: Staphylococcus aureus, 1628, 18 h, read-out: MIC Piperacillin Alone.
[32] abbreviates: read-out: MIC Ceftazidime (Alone).
The mark [33] stands for this setting: read-out: MIC Piperacillin Alone.

As a reminder, the MIC is the least concentration at which growth counts as inhibited.

T2 sequence (P24735 27-397): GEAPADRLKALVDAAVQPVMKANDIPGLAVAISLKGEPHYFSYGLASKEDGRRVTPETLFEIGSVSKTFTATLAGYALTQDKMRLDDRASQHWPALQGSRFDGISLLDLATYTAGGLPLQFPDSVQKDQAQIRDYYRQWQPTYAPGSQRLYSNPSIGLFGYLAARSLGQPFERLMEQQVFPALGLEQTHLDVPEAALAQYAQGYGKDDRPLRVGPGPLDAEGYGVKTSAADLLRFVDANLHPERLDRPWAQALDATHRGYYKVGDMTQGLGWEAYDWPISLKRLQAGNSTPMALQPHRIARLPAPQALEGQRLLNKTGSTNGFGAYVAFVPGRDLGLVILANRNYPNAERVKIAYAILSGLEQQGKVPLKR
T1 sequence (P62593 24-286 limits assumed): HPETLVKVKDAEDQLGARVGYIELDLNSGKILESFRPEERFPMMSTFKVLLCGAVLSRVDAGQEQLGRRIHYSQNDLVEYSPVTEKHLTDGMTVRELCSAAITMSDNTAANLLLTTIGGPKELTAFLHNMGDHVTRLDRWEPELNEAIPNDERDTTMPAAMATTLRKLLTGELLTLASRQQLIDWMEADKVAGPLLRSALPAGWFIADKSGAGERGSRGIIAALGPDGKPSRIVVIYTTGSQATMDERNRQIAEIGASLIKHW

On to `C[C@]1(C=NOCC(=O)O)[C@H](C(=O)O)N2C(=O)C[C@H]2S1(=O)=O` [Compound 28, (2S, 3R, 5R)-3-formyl-3-methyl-7-oxo-4-thia-1-azabicyclo[3.2.0]heptane-2-carboxylicacid, 3^1-[O-(carboxymethyl)oxime], disodium salt, 4,4-dioxide], for which the results for the pIC50 in experiment [1] and in experiment [2] were 8.32 and 6.00, respectively.
For `CCON=C[C@@]1(C)[C@H](C(=O)O)N2C(=O)C[C@H]2S1(=O)=O` [Compound 10, sodium (2S, 3R, 5R]-3-formyl-3-methyl-7-oxo-4-thia-1-azabicyclo[3.2.0]heptane-2-carboxylate, 3^1-(O-ethyloxime), 4,4-dioxide] the same measures were 6.30 and 6.00.
On to `CON=C[C@@]1(C)[C@H](C(=O)O)N2C(=O)C[C@H]2S1(=O)=O` [Compound 3, sodium (2S, 3R, 5R)-3-formyl-3-methyl-7-oxo-4-thia-1-azabicyclo[3.2.0]heptane-2-carboxylate, 3^1-(O-methyloxime), 4,4-dioxide], for which the pIC50 in [1] is 6.52; in [2], 5.72.
Regarding `CC(C)(O/N=C(\C(=O)N[C@@H]1C(=O)N2C(C(=O)[O-])=C(C[n+]3ccccc3)CS[C@H]12)c1csc(N)n1)C(=O)O` [Ceftazidime, ceftazidime], the MIC in experiment [3] came to 100 µg/mL (≈ 183 µM); in experiment [4] (setting [32]), 25 µg/mL (≈ 45.7 µM); in [5], 100 µg/mL (≈ 183 µM); in experiment [6] (setting [32]) it was 100 µg/mL (≈ 183 µM); in [7] (setting [32]) it was 25 µg/mL (≈ 45.7 µM); in experiment [8] (setting [32]), 100 µg/mL (≈ 183 µM). The minimum inhibitory concentration (MIC) worked out at 25 µg/mL (≈ 45.7 µM) in experiment [9]; 200 µg/mL (≈ 366 µM) in experiment [10]; 25 µg/mL (≈ 45.7 µM) in [11] (setting [32]); 25 µg/mL (≈ 45.7 µM) in experiment [12] (setting [32]); 25 µg/mL (≈ 45.7 µM) in experiment [13]; 200 µg/mL (≈ 366 µM) in experiment [14] (setting [32]). The minimum inhibitory concentration (MIC) in experiment [15] (setting [32]) came out at 50 µg/mL (≈ 91.5 µM).
As for `C[C@]1(C=NO)[C@H](C(=O)O)N2C(=O)C[C@H]2S1(=O)=O` [Compound 5, sodium (2S, 3R, 5R)-3-formyl-3-methyl-7-oxo-4-thia-1-azabicyclo[3.2.0]heptane-2-carboxylate, 3^1-(hydroxyloxime), 4,4-dioxide], the pIC50 in experiment [1] is 6.24; in experiment [2], 5.15.
For `CCCON=C[C@@]1(C)[C@H](C(=O)O)N2C(=O)C[C@H]2S1(=O)=O` [Compound 8, sodium (2S, 3R, 5R)-3-formyl-3-methyl-7-oxo-4-thia-1-azabicyclo[3.2.0]heptane-2-carboxylate, 3^1-(O-propyloxime), 4,4-dioxide] the same measures were 7.00 and 6.00.
In the case of `CC(=O)NN=C[C@@]1(C)[C@H](C(=O)O)N2C(=O)C[C@H]2S1(=O)=O` [Compound 38, sodium (2S, 3R, 5R)-3-formyl-3-methyl-7-oxo-4-thia-1-azabicyclo[3.2.0]heptane-2-carboxylate, 3^1-(acetylhydrazone), 4,4-dioxide], the pIC50 in experiment [1] is 8.85; in experiment [2], 6.22.
Turning to `CCN1CCN(C(=O)N[C@@H](C(=O)N[C@@H]2C(=O)N3[C@@H]2SC(C)(C)[C@@H]3C(=O)O)c2ccccc2)C(=O)C1=O` [Piperacillin, piperacillin], the MIC in experiment [16] worked out at 25 µg/mL (≈ 48.3 µM); in [17] it was 400 µg/mL (≈ 773 µM); in experiment [18] it was 12.5 µg/mL (≈ 24.2 µM); in [4] (setting [33]), 100 µg/mL (≈ 193 µM); in experiment [19], 25 µg/mL (≈ 48.3 µM); in experiment [6] (setting [33]) it was 200 µg/mL (≈ 386 µM). Besides, the minimum inhibitory concentration (MIC) in experiment [7] (setting [33]) is 50 µg/mL (≈ 96.6 µM); in [8] (setting [33]), more than 40 µg/mL; in experiment [20] it was more than 400 µg/mL; in [21] it was 200 µg/mL (≈ 386 µM); in [22], 100 µg/mL (≈ 193 µM); in [23], 50 µg/mL (≈ 96.6 µM). The minimum inhibitory concentration (MIC) in experiment [24] turned out to be 100 µg/mL (≈ 193 µM); in [25], 3.13 µg/mL (≈ 6.05 µM); in experiment [26], 400 µg/mL (≈ 773 µM); in experiment [11] (setting [33]), 100 µg/mL (≈ 193 µM); in experiment [12] (setting [33]) it was 25 µg/mL (≈ 48.3 µM); in experiment [27], 100 µg/mL (≈ 193 µM). In addition, the minimal inhibitory concentration (MIC) in experiment [14] (setting [33]) stood at 200 µg/mL (≈ 386 µM); in experiment [28], 100 µg/mL (≈ 193 µM); in experiment [29], 50 µg/mL (≈ 96.6 µM); in [30], 12.5 µg/mL (≈ 24.2 µM); in experiment [31] it was 400 µg/mL (≈ 773 µM); in experiment [15] (setting [33]), 50 µg/mL (≈ 96.6 µM).
